Data as given in PubChem BioAssay (NCI).
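Each compound was tested at five concentrations against cells in 96-well plates for 48 hours. GI50 = concentration required for 50% inhibition of growth. TGI denotes the concentration required for complete inhibition of growth.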

Key:
Assay in all cases: inhibition of tumour cell growth, NCI panel, 48 h
SK-MEL-2 melanoma = system: SK-MEL-2 melanoma
KM12 colon = system: KM12 colon
MALME-3M melanoma = system: MALME-3M melanoma
K-562 leukemia = system: K-562 leukemia
HL-60(TB) leukemia = system: HL-60(TB) leukemia
CCRF-CEM leukemia = system: CCRF-CEM leukemia
SF-268 CNS = system: SF-268 CNS
CAKI-1 renal = system: CAKI-1 renal
SW-620 colon = system: SW-620 colon
DU-145 prostate = system: DU-145 prostate

Row | SMILES | GI50 (SK-MEL-2 melanoma) [µM] | TGI (SK-MEL-2 melanoma) [µM] | GI50 (KM12 colon) [µM] | TGI (KM12 colon) [µM] | GI50 (MALME-3M melanoma) [µM] | TGI (MALME-3M melanoma) [µM] | GI50 (K-562 leukemia) [µM] | TGI (K-562 leukemia) [µM] | GI50 (HL-60(TB) leukemia) [µM] | TGI (HL-60(TB) leukemia) [µM] | GI50 (CCRF-CEM leukemia) [µM] | TGI (CCRF-CEM leukemia) [µM] | GI50 (SF-268 CNS) [µM] | TGI (SF-268 CNS) [µM] | GI50 (CAKI-1 renal) [µM] | TGI (CAKI-1 renal) [µM] | GI50 (SW-620 colon) [µM] | TGI (SW-620 colon) [µM] | GI50 (DU-145 prostate) [µM] | TGI (DU-145 prostate) [µM]
1 | O=C(CCCCCCSc1nc(-c2ccccc2)cc(-c2ccc(Cl)cc2)n1)NO | 3.65 | 16.2 | 2.97 | 13.5 | 1.25 | 9.05 | 1.66 | 10.8 | 2.16 | 4.84 | 0.629 | 6.49 | 2.44 | 6.75 | 1.51 | 6.89 | 1.48 | 10.4 | 2.25 | 10.6
2 | COc1cc2c(cc1OC)C(=O)/C(=C/c1cccc(OCC(=O)c3ccccc3)c1)C2 | 10.2 | > 100 | 7.79 | > 100 | 25.1 | > 100 | 3.11 | > 100 | 6.44 | 61.8 | 2.17 | 7.31 | 15.3 | 63.3 | 12.7 | 79.3 | 38.3 | > 100 | 11.3 | > 100
3 | CNC(=O)c1cc(OC2CCC(NC(=O)Nc3ccc(Cl)c(C(F)(F)F)c3)CC2)ccn1 (configuration not stated) | 15.8 | 38.3 | 0.713 | 14 | 9.64 | 34.3 | 3.66 | 17.3 | 11.7 | 50.2 | 4.41 | > 100 | 13.7 | 52 | 6.75 | 31.9 | 11.5 | 31.2 | 12.8 | 32.5
4 | Cc1ccc(CNc2c3ccccc3nc3ccccc23)cc1 | 2.06 | 4.47 | 3.4 | 12.9 | 1.66 | 3.18 | 1.97 | 13.1 | 2.2 | 5.07 | 2.48 | 12.6 | 2.98 | 11.3 | 1.53 | 4.57 | 1.62 | 5.32 | 3.02 | 11.4
5 | COc1cc(/C(C#N)=C/c2ccc3c(c2OC)OCO3)cc2c1OCO2 | 0.0461 | 6.46 | 0.0424 | > 100 | 0.264 | 41.1 | 0.0358 | > 32.9 | 0.0314 | 0.922 | 0.0601 | 4.62 | 0.0969 | 15.8 | 0.0933 | > 100 | 0.0412 | > 100 | 0.122 | 3.63
6 | COc1ccc(N=C2CSc3nnc(-c4cc(F)c(Cl)cc4Cl)n3N2)cc1 | 2.75 | 13.4 | 0.469 | 3.45 | 0.529 | 3.77 | 0.515 | 18.1 | 0.331 | 0.636 | 0.674 | > 100 | 1.69 | 21.7 | 1.52 | 4.49 | 0.553 | 13.1 | 1.47 | 3.87
7 | CCN(CC)CCOc1nc2ccc(OC)cc2c2c1-c1ccc(OC)cc1C2=O | 2.24 | 4.05 | 0.519 | 1.77 | 1.68 | 3.22 | 0.502 | 2.54 | 1.06 | 3.37 | 0.299 | 3.26 | 0.595 | 2.02 | 1.15 | 2.88 | 0.253 | 1.61 | 0.626 | 1.88
8 | COc1ccc(-c2nn3ncccc3c2-c2ccnc(Nc3ccc(Cl)c(C(F)(F)F)c3)n2)cc1 | 11.6 | > 25 | 9.89 | > 25 | 10.8 | > 25 | 10.8 | > 25 | 11.9 | > 25 | 8.37 | > 25 | 11.6 | > 25 | 12.4 | > 25 | 14.4 | > 25 | 14 | > 25
9 | CS(=O)(=O)CCNCc1nc(-c2ccc3ncnc(Nc4ccc(F)c(Cl)c4)c3c2)cs1 | > 17.6 | > 25 | 21.1 | > 25 | > 23.6 | > 25 | > 12.5 | > 19.7 | > 12.3 | > 17.8 | 15.4 | > 25 | > 17.9 | > 25 | 1.47 | > 25 | > 25 | > 25 | 5.49 | > 25
10 | Cc1c2c(nn1-c1ccc(S(=O)(=O)NC(=S)Nc3ccccc3)cc1)-c1ccccc1CC2 | > 50 | > 50 | 25.6 | > 50 | 1.15 | > 50 | > 50 | > 50 | > 50 | > 50 |  |  | 18.7 | > 50 | 1.85 | 36.2 | > 50 | > 50 | > 50 | > 50
11 | COc1ccc(Cl)cc1Nc1nc(C(F)(F)F)ccc1C(=O)N/N=C/c1c(Cl)cccc1Cl | 5.62 | > 100 |  |  | 3.46 | 54.7 | 3.34 | 32.5 | 4.87 | 41.6 | 1.04 | 6.17 | 5.28 | > 100 | 9.74 | > 100 |  |  | 5.91 | > 100
12 | CN(C)c1cccc2c(S(=O)(=O)N[C@H]3CC[C@H]4[C@@H]5CCc6cc(O)ccc6[C@H]5CC[C@]34C)cccc12 | 2.37 | 5.48 |  |  | 1.9 | 5.61 | 1.71 | > 100 | 2.78 | 8.23 | 3.25 | > 100 | 3.03 | 15 | 2.05 | 7.43 | 2.72 | 14 | 2.71 | 8.51
